Among the test systems are IGROV1 ovarian; NCI-H460 lung; SK-MEL-28 melanoma; A549 NSCLC; NCI-H226 lung; SK-MEL-2 melanoma; KM12 colon.
Test in all cases: NCI anticancer screen, dose series, 48 h

The results in this text go back to PubChem BioAssay (NCI).

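Tested at 5 concentrations; 48 h exposure; 96-well plates; endpoints linearly interpolated, else capped at highest concentration. The concentration for 50% growth inhibition is given as GI50. TGI is the concentration that stops growth completely.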

As for `COc1ccc(NC(=O)CC2SC(=Nc3ccc(Cl)cc3C)NC2=O)c([N+](=O)[O-])c1` (configuration not stated), the TGI in the assay on IGROV1 ovarian, in the assay with NCI-H460 lung, in the assay with SK-MEL-28 melanoma, in the assay with A549 NSCLC, with NCI-H226 lung and in the assay on SK-MEL-2 melanoma was more than 100 µM in each case.
As for `O=S1c2ccccc2N=C(c2cccs2)CC1c1ccccc1O` (configuration not stated), the TGI with KM12 colon, in the assay with IGROV1 ovarian, with NCI-H460 lung, in the assay on SK-MEL-28 melanoma, with A549 NSCLC and in the assay on NCI-H226 lung was more than 100 µM each time. In the assay with SK-MEL-2 melanoma, this compound came in with a TGI of more than 100 µM.
`CC1O[C@@H]2CCCCC(=O)[C@]2(C)[C@H]1C` (some centres not stated): the TGI with KM12 colon, with IGROV1 ovarian, with NCI-H460 lung, with SK-MEL-28 melanoma, in the assay on A549 NSCLC and in the assay with NCI-H226 lung was more than 100 µM in each case. This compound also had a TGI in the assay with SK-MEL-2 melanoma of more than 100 µM.
Consider `Cc1ccccc1C1SCc2nc3ccccc3n21` (configuration not stated), for which the TGI with KM12 colon, in the assay with IGROV1 ovarian, in the assay on SK-MEL-28 melanoma, with A549 NSCLC, with NCI-H226 lung and with SK-MEL-2 melanoma was more than 100 µM each time.
With `O=C(NNC(=O)/C(=C/c1cccc([N+](=O)[O-])c1)NC(=O)c1ccccc1)Nc1ccc(Cl)cc1`, the TGI in the assay on KM12 colon turned out to be 24.7 µM; in the assay on IGROV1 ovarian it was 27.4 µM; with NCI-H460 lung it was 29.9 µM; with SK-MEL-28 melanoma, 30.8 µM; in the assay with A549 NSCLC, 31.4 µM; in the assay with NCI-H226 lung, 32.2 µM. The compound also displayed a TGI with SK-MEL-2 melanoma of 25.5 µM.
As to `CC(C)(C)c1cc([Si](C)(C)C)c(C#N)c([Si](C)(C)C)c1`, the TGI in the assay on KM12 colon, with IGROV1 ovarian, in the assay on NCI-H460 lung, in the assay with SK-MEL-28 melanoma, in the assay on A549 NSCLC and in the assay on NCI-H226 lung was more than 100 µM each time. In addition, the TGI in the assay on SK-MEL-2 melanoma was more than 100 µM.
For `O=c1[nH]c(C2CCCCC2)nc2ccc(Cl)cc12`, the TGI in the assay on KM12 colon, in the assay with IGROV1 ovarian, with SK-MEL-28 melanoma, in the assay with A549 NSCLC, in the assay on NCI-H226 lung and in the assay with SK-MEL-2 melanoma was more than 100 µM in each case.
Consider `O=Cc1cc2sc(C=O)cc2s1`, for which the TGI in the assay on KM12 colon is more than 100 µM; in the assay with IGROV1 ovarian, more than 100 µM; in the assay on NCI-H460 lung it was more than 100 µM; in the assay on A549 NSCLC, more than 100 µM; with NCI-H226 lung, 59.2 µM.
In the case of `O=C1/C(=C/c2ccc(C(=O)O)cc2)CNC/C1=C\c1ccc(C(=O)O)cc1`, the TGI with KM12 colon, in the assay on IGROV1 ovarian, in the assay with NCI-H460 lung, in the assay on SK-MEL-28 melanoma, in the assay with A549 NSCLC and with NCI-H226 lung was more than 100 µM each time.
With `CCCCCCCC(=O)[O-].N.N.N.N.N.[Co+3].[O-][Cl+3]([O-])([O-])[O-]`, the GI50 in the assay on KM12 colon, in the assay with IGROV1 ovarian, in the assay with NCI-H460 lung, in the assay on SK-MEL-28 melanoma, in the assay with A549 NSCLC and with SK-MEL-2 melanoma was more than 100 µM in each case. In addition, the TGI in the assay on KM12 colon, with IGROV1 ovarian, in the assay on NCI-H460 lung, with SK-MEL-28 melanoma, in the assay with A549 NSCLC and in the assay with SK-MEL-2 melanoma was more than 100 µM in each case.
On to `COc1ccc(C2[C@@H](Cl)C(=O)N2c2ccc(OC)cc2)cc1` (some centres not stated), for which the TGI with KM12 colon, with IGROV1 ovarian, in the assay on NCI-H460 lung, in the assay on SK-MEL-28 melanoma, in the assay with A549 NSCLC and with NCI-H226 lung was more than 100 µM each time. Further, the TGI in the assay on SK-MEL-2 melanoma is more than 100 µM.
Turning to `CC1=NN(c2ccccc2)C(=O)C1N=Nc1ccc(Br)cc1C` (configuration not stated), the TGI in the assay on KM12 colon, in the assay with IGROV1 ovarian, in the assay with NCI-H460 lung, with SK-MEL-28 melanoma, with A549 NSCLC and with NCI-H226 lung was more than 100 µM throughout. Moreover, the TGI in the assay with SK-MEL-2 melanoma is more than 100 µM.
Turning to `O=S(=O)(O)c1ccc([Se][Se]c2ccc(S(=O)(=O)O)cc2)cc1`, the TGI in the assay with KM12 colon, with IGROV1 ovarian, in the assay with NCI-H460 lung, in the assay on SK-MEL-28 melanoma, in the assay with A549 NSCLC and in the assay with NCI-H226 lung was more than 100 µM throughout. Besides, the TGI with SK-MEL-2 melanoma was more than 100 µM.
In the case of `Oc1ccccc1-c1cnnc(-c2ccccc2O)c1`, the results for the TGI in the assay on SK-MEL-28 melanoma, with NCI-H226 lung and in the assay on SK-MEL-2 melanoma were 88.3 µM, 73.9 µM and 43.6 µM, respectively.
With `Cc1cc(NCCCCCCCCNc2cc(C)nc3cc(N(C)C)ccc23)c2ccc(N(C)C)cc2n1`, the TGI in the assay with KM12 colon is 19.6 µM; in the assay with NCI-H460 lung, 19.5 µM; in the assay on SK-MEL-28 melanoma, 4.48 µM; in the assay on A549 NSCLC, 21.8 µM.
As for `CCCCCCCCCCCCCC(=O)OCC1OC(=O)C(O)C1O` (configuration not stated), the TGI in the assay on KM12 colon, in the assay on IGROV1 ovarian, in the assay on SK-MEL-28 melanoma, in the assay on A549 NSCLC and with NCI-H226 lung was more than 100 µM each time.
